ChEMBL document CHEMBL1150006, “Synthesis of new imidazo[1,2-b]pyridazine isosteres of potent imidazo[4,5-b]pyridine angiotensin II antagonists” (Bioorg Med Chem Lett, 1994)
pIC50: −log10 of the molar value.

Assays:
[1] = target: T1, Type-1 angiotensin II receptor (Oryctolagus cuniculus, UniProt P34976); assay: In vitro binding affinity evaluated by its ability to displace the specific binding ligand 125I-SAR1, Ile8-AII from Angiotensin II receptor, type 1 in rabbit aorta membrane; format: cell membranes
T1 sequence (P34976 whole entry): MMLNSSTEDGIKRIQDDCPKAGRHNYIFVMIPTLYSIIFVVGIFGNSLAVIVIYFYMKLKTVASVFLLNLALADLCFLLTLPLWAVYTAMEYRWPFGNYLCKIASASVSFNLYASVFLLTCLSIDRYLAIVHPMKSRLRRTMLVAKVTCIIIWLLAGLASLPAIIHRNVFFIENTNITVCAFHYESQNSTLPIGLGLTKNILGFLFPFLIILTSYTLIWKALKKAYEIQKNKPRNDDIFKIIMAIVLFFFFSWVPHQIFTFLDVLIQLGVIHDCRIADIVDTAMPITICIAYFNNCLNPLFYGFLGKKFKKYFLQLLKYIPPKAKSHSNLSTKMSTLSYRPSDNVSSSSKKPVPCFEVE

Rattus norvegicus [2] = assay: Dose required for more than 90% maximal inhibition of blood pressure response at iv bolus administration in conscious normotensive rats; format: functional
[3] = target: T2, Type-2 angiotensin II receptor (Rattus norvegicus, UniProt P35351); assay: In vitro binding affinity at AT2 receptor determined by its ability to displace the specific binding ligand [125I]-Sar1, Ile8-AII from rat brain membrane
T2 sequence (P35351 whole entry): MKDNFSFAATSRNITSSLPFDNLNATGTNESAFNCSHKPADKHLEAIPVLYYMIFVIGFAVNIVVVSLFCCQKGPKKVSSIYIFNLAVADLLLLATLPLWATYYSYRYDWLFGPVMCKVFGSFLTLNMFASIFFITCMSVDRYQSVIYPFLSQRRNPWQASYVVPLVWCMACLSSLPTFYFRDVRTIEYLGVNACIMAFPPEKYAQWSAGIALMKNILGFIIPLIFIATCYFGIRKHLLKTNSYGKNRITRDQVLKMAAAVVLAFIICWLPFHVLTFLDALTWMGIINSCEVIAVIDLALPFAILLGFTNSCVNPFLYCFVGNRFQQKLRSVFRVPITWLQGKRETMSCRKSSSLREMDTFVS

Rattus norvegicus [4] = species on record: Rattus norvegicus; assay: Percent inhibition exceeded duration of 6 hours; format: functional

Row | pIC50 [1] | pIC50 [3] | SMILES | Dose (Rattus norvegicus [2]) [mg/kg] | Inhibition (Rattus norvegicus [4]) [%]
1 | 8.24 | < 8.00 | CCc1nc2c(C)cc(C)nn2c1Cc1ccc(-c2ccccc2-c2nn[nH]n2)cc1 | 1 | >30
2 | 9.10 |  | CCc1nc2c(C)cc(C)nn2c1Cc1ccc(-c2ccccc2S(=O)(=O)NC(=O)c2ccccc2)cc1 |  | 
3 | 7.08 |  | CCc1nc2c(C)cc(C)nn2c1Cc1ccc(-c2ccccc2C(=O)O)cc1 |  | 
4 | 8.77 |  | CCc1nc2c(C)cc(C)nn2c1Cc1ccc(-c2ccccc2NS(=O)(=O)C(F)(F)F)cc1 |  | 
